# Assay results reported in ChEMBL document CHEMBL1154471, “Lanostane-type triterpenoids from the sclerotia of Inonotus obliquus possessing anti-tumor promoting activity” (Eur J Med Chem, 2008).
# Assays:
# Raji [1] = assay: Inhibition of TPA-induced EBV-early antigen activation in human Raji cells assessed as EA activation at 500 molar ratio after 48 hrs relative to TPA; format: cell-based; parameters: scale not given: the % may be the effect or the level left; details: human gammaherpesvirus 4
# Raji [2] = assay: Inhibition of TPA-induced EBV-early antigen activation in human Raji cells assessed as EA activation at 1000 molar ratio after 48 hrs relative to TPA; format: cell-based; parameters: scale not given: the % may be the effect or the level left; details: human gammaherpesvirus 4
# Raji [3] = assay: Inhibition of TPA-induced EBV-early antigen activation in human Raji cells assessed as EA activation at 10 molar ratio […] relative to TPA; format: cell-based; parameters: scale not given: the % may be the effect or the level left; details: human gammaherpesvirus 4
# Raji [4] = assay: Inhibition of TPA-induced EBV-early antigen activation in human Raji cells assessed as EA activation at 100 molar ratio […] relative to TPA; format: cell-based; parameters: scale not given: the % may be the effect or the level left; details: human gammaherpesvirus 4
# [5] = Inhibition of TPA-induced EBV-early antigen activation in human Raji cells assessed as EA activation; format: cell-based, human gammaherpesvirus 4
# [6] = Cytotoxicity against human Raji cells assessed as cell viability at 1000 molar ratio by trypan blue staining relative to control; format: cell-based; details: read-out: Activity
# Mus musculus [7] = assay: Inhibition of DMBA-induced/TPA-promoted carcinogenesis in mouse assessed as number of skin papillomas per mouse at 85 nmol administered twice weekly after 1 week of initiation for 20 weeks; format: functional
# Mus musculus [8] = assay: Inhibition of DMBA-induced/TPA-promoted carcinogenesis in mouse assessed as number of skin papillomas per mouse at 85 nmol administered twice weekly after 1 week of initiation for 11 weeks; format: functional
# Mus musculus [9] = assay: Inhibition of DMBA-induced/TPA-promoted carcinogenesis in mouse assessed as number of mouse bearing papillomas at 85 nmol administered twice weekly after 1 week of initiation for 20 weeks; format: functional; parameters: scale not given: the % may be the effect or the level left
# Mus musculus [10] = assay: Inhibition of DMBA-induced/TPA-promoted carcinogenesis in mouse assessed as number of mouse bearing papillomas at 85 nmol administered twice weekly after 1 week of initiation for 11 weeks; format: functional; parameters: scale not given: the % may be the effect or the level left
IC50 [5],SMILES,Activity (Raji [1]),Activity (Raji [2]),Activity (Raji [3]),Activity (Raji [4]),viability at 1000 molar ratio [6],Activity (Mus musculus [7]),Activity (Mus musculus [8]),Activity (Mus musculus [9]),Activity (Mus musculus [10])
228 molar ratio,C[C@H]([C@H](O)/C=C/C(C)(C)O)[C@H]1CC[C@@]2(C)C3=CC[C@H]4C(C)(C)[C@@H](O)CC[C@]4(C)C3=CC[C@]12C,25.1%,0%,88.2%,67.3%,70%,,,,
231 molar ratio,C[C@H]([C@H](O)/C=C/C(C)(C)O)[C@H]1CC[C@@]2(C)C3=C(CC[C@]12C)[C@@]1(C)CC[C@H](O)C(C)(C)[C@@H]1CC3,26.9%,0%,89.2%,69.8%,70%,,,,
389 molar ratio,CC1(C)CC[C@]2(C(=O)O)CC[C@]3(C)C(=CC[C@@H]4[C@@]5(C)CC[C@H](O)C(C)(C)[C@@H]5CC[C@]43C)[C@@H]2C1 [OLEANOLIC_ACID],30%,12.7%,100%,80%,,,,,
392 molar ratio,CC(C)=CCC[C@@H](CO)[C@H]1CC[C@@]2(C)C3=C(CC[C@]12C)[C@@]1(C)CC[C@H](O)C(C)(C)[C@@H]1CC3,47.1%,10.9%,100%,77.5%,70%,,,,

SMILES,IC50 [5],Activity (Raji [1]),Activity (Raji [2]),Activity (Raji [3]),Activity (Raji [4]),viability at 1000 molar ratio [6],Activity (Mus musculus [7]),Activity (Mus musculus [8]),Activity (Mus musculus [9]),Activity (Mus musculus [10])
CC(C)=CCC[C@@H](C=O)[C@H]1CC[C@@]2(C)C3=C(CC[C@]12C)[C@@]1(C)CC[C@H](O)C(C)(C)[C@@H]1CC3,232 molar ratio,35.1%,0%,90.4%,64%,70%,3.8,1.2,73.3%,33.3%
